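Each compound was tested at five concentrations against cells in 96-well plates for 48 hours. At the TGI there is no net growth.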
Tests used:
Assay in all cases: inhibition of tumour cell growth, NCI panel, 48 h
[1] = test system: MALME-3M melanoma
[2] = test system: OVCAR-8 ovarian
[3] = test system: SK-MEL-2 melanoma
[4] = test system: 786-0 renal
[5] = test system: RXF 393 renal
[6] = test system: M14 melanoma
[7] = test system: EKVX NSCLC
[8] = test system: COLO 205 colon
[9] = test system: OVCAR-5 ovarian
[10] = test system: NCI/ADR-RES ovarian
[11] = test system: SK-MEL-28 melanoma
[12] = test system: MOLT-4 leukemia
[13] = test system: PC-3 prostate
[14] = test system: MCF7 breast
[15] = test system: DU-145 prostate
[16] = test system: SW-620 colon
[17] = test system: CCRF-CEM leukemia
[18] = test system: SK-MEL-5 melanoma
[19] = test system: HOP-62 NSCLC
[20] = test system: SF-539 CNS
[21] = test system: MDA-N
[22] = test system: HCT-116 colon
[23] = test system: A498 renal
[24] = test system: NCI-H460 lung
[25] = test system: SK-OV-3 ovarian
[26] = test system: T-47D breast
[27] = test system: MDA-MB-435
[28] = test system: SF-268 CNS
[29] = test system: OVCAR-3 ovarian
[30] = test system: HS 578T breast
[31] = test system: HOP-92 NSCLC
[32] = test system: RPMI-8226 leukemia
[33] = test system: SNB-19 CNS
[34] = test system: UACC-62 melanoma
[35] = test system: A549 NSCLC
[36] = test system: SNB-75 CNS
[37] = test system: SR leukemia
[38] = test system: KM12 colon
[39] = test system: LOX IMVI melanoma
[40] = test system: SF-295 CNS
[41] = test system: U251 CNS
[42] = test system: NCI-H226 lung
[43] = test system: HL-60(TB) leukemia
[44] = test system: ACHN renal
[45] = test system: UO-31 renal
[46] = test system: SN12C renal
[47] = test system: UACC-257 melanoma
[48] = test system: HCT-15 colon
[49] = test system: IGROV1 ovarian
[50] = test system: BT-549 breast
[51] = test system: MDA-MB-231 breast
[52] = test system: K-562 leukemia
[53] = test system: HT29 colon
[54] = test system: NCI-H23 lung
[55] = test system: TK-10 renal
[56] = test system: OVCAR-4 ovarian
[57] = test system: NCI-H522 lung
[58] = test system: CAKI-1 renal
[59] = test system: HCC-2998 colon

Compound: CCOC(=O)C(Cl)(Cl)/S(=N\S(=O)(=O)c1ccccc1)NC(=O)c1ccccc1 (stereo not drawn)
- TGI [1]: > 100 µM
- TGI [2]: > 100 µM
- TGI [3]: > 100 µM
- TGI [4]: > 100 µM
- TGI [5]: > 100 µM
- TGI [6]: > 100 µM
- TGI [7]: > 100 µM
- TGI [8]: > 100 µM
- TGI [9]: > 100 µM
- TGI [10]: > 100 µM
- TGI [11]: > 100 µM
- TGI [12]: > 100 µM
- TGI [13]: > 100 µM
- TGI [14]: > 100 µM
- TGI [15]: > 100 µM
- TGI [16]: > 100 µM
- TGI [17]: > 100 µM
- TGI [18]: > 100 µM
- TGI [19]: > 100 µM
- TGI [20]: > 100 µM
- TGI [21]: > 100 µM
- TGI [22]: > 100 µM
- TGI [23]: > 100 µM
- TGI [24]: > 100 µM
- TGI [25]: > 100 µM
- TGI [26]: > 100 µM
- TGI [27]: > 100 µM
- TGI [28]: > 100 µM
- TGI [29]: > 100 µM
- TGI [30]: > 100 µM
- TGI [31]: > 100 µM
- TGI [32]: > 100 µM
- TGI [33]: > 100 µM
- TGI [34]: > 100 µM
- TGI [35]: > 100 µM
- TGI [36]: > 100 µM
- TGI [37]: > 100 µM
- TGI [38]: > 100 µM
- TGI [39]: > 100 µM
- TGI [40]: > 100 µM
- TGI [41]: > 100 µM
- TGI [42]: > 100 µM
- TGI [43]: > 100 µM
- TGI [44]: > 100 µM
- TGI [45]: > 100 µM
- TGI [46]: > 100 µM
- TGI [47]: > 100 µM
- TGI [48]: > 100 µM
- TGI [49]: > 100 µM
- TGI [50]: > 100 µM
- TGI [51]: > 100 µM
- TGI [52]: > 100 µM
- TGI [53]: > 100 µM
- TGI [54]: > 100 µM
- TGI [55]: > 100 µM
- TGI [56]: > 100 µM

Compound: Cn1c(=O)c2c(nc(C(=N)SCC(=O)O)n2C)n(C)c1=O
- TGI [1]: > 100 µM
- TGI [57]: > 100 µM
- TGI [2]: > 100 µM
- TGI [3]: > 100 µM
- TGI [4]: > 100 µM
- TGI [5]: > 100 µM
- TGI [6]: > 100 µM
- TGI [7]: > 100 µM
- TGI [8]: 71.5 µM
- TGI [9]: > 100 µM
- TGI [10]: > 100 µM
- TGI [11]: > 100 µM
- TGI [12]: 50.9 µM
- TGI [13]: > 100 µM
- TGI [14]: > 100 µM
- TGI [15]: > 100 µM
- TGI [16]: > 100 µM
- TGI [17]: 35.8 µM
- TGI [18]: 37.6 µM
- TGI [19]: > 100 µM
- TGI [20]: > 100 µM
- TGI [21]: > 100 µM
- TGI [22]: > 100 µM
- TGI [23]: 66.7 µM
- TGI [24]: > 100 µM
- TGI [25]: > 100 µM
- TGI [26]: > 100 µM
- TGI [27]: > 100 µM
- TGI [28]: > 100 µM
- TGI [29]: > 100 µM
- TGI [30]: > 100 µM
- TGI [31]: > 100 µM
- TGI [32]: > 100 µM
- TGI [33]: > 100 µM
- TGI [34]: > 100 µM
- TGI [35]: > 100 µM
- TGI [36]: > 100 µM
- TGI [37]: 80.2 µM
- TGI [38]: > 100 µM
- TGI [39]: > 100 µM
- TGI [40]: > 100 µM
- TGI [41]: > 100 µM
- TGI [42]: > 100 µM
- TGI [43]: 52.8 µM
- TGI [44]: > 100 µM
- TGI [45]: > 100 µM
- TGI [46]: > 100 µM
- TGI [47]: > 100 µM
- TGI [48]: > 100 µM
- TGI [49]: > 100 µM
- TGI [50]: > 100 µM
- TGI [58]: 99 µM
- TGI [51]: > 100 µM
- TGI [52]: > 100 µM
- TGI [53]: > 100 µM
- TGI [54]: > 100 µM
- TGI [55]: > 100 µM
- TGI [56]: 85.6 µM

Compound: COC(=O)CN1c2nc(C#N)c(C#N)nc2N(CC(=O)OC)c2nc(C#N)c(C#N)nc21
- TGI [1]: 3.01 µM
- TGI [57]: 3.74 µM
- TGI [2]: > 22.3 µM
- TGI [3]: > 100 µM
- TGI [4]: 5.21 µM
- TGI [5]: 7.09 µM
- TGI [6]: 5.31 µM
- TGI [7]: > 51.3 µM
- TGI [8]: 15.3 µM
- TGI [9]: 22.6 µM
- TGI [10]: > 100 µM
- TGI [11]: > 100 µM
- TGI [12]: > 22 µM
- TGI [13]: 18.4 µM
- TGI [14]: 18.4 µM
- TGI [15]: 18.3 µM
- TGI [16]: > 25.9 µM
- TGI [17]: > 24.3 µM
- TGI [18]: > 53.8 µM
- TGI [19]: 34.3 µM
- TGI [20]: 24.2 µM
- TGI [21]: > 100 µM
- TGI [22]: 3.77 µM
- TGI [23]: > 52 µM
- TGI [24]: > 71 µM
- TGI [25]: 35.2 µM
- TGI [26]: 8.6 µM
- TGI [27]: > 100 µM
- TGI [28]: 11.4 µM
- TGI [29]: 18.8 µM
- TGI [30]: 39.6 µM
- TGI [59]: > 49.7 µM
- TGI [31]: 7.44 µM
- TGI [32]: > 100 µM
- TGI [33]: > 65.9 µM
- TGI [34]: 42.4 µM
- TGI [35]: > 82.8 µM
- TGI [36]: 30.4 µM
- TGI [37]: 6.66 µM
- TGI [38]: 27.8 µM
- TGI [39]: > 20.1 µM
- TGI [40]: 43.5 µM
- TGI [41]: > 57.1 µM
- TGI [42]: > 100 µM
- TGI [43]: 5.61 µM
- TGI [44]: 5.72 µM
- TGI [45]: > 25.6 µM
- TGI [46]: > 100 µM
- TGI [47]: > 100 µM
- TGI [48]: > 36 µM
- TGI [49]: 23.4 µM
- TGI [50]: 11.3 µM
- TGI [58]: 1.55 µM
- TGI [51]: > 52.9 µM
- TGI [52]: > 33.9 µM
- TGI [53]: 12.1 µM
- TGI [54]: > 29.8 µM
- TGI [55]: 6.78 µM
- TGI [56]: 17.3 µM

— PubChem BioAssay (NCI)
